# In US10774064B2 (Cadent Therapeutics, Inc., priority 2016, dated 2020):
# Biological target: T1, small-conductance Ca2+-activated K+ channels (SK channels, subtype 2) (Homo sapiens, UniProt Q9H2S1)
# T1 construct: expressed in transfected cells; host or cells: HEK293
# Assay: whole-cell patch-clamp of ionic current through SK2 channels in HEK293 cells (SC100)
# Assay type: cell-based
# Details: whole-cell patch-clamp, HEK293 cells expressing SK2 channels; concentration that increases the basal current by 100%
# Summary of the method: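 Whole-cell patch-clamp recording of current in HEK293 cells expressing SK2 channels. SC100 is the compound concentration that increases basal current by 100%.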
row,Compound,SC100 (μM)
1,"Cc1cc(NC2CCC(F)(F)CC2)nc(CO)n1 [IN11273-001-P1, (4-((4,4-difluorocyclohexyl)amino)-6-methylpyrimidin-2-yl) methanol]",+ (+ means >1 uM)
2,"COC(=O)c1nc(C)cc(NC2CCC(F)(F)CC2)n1 [IN11273-006-P1, methyl 4-((4,4-difluorocyclohexyl)amino)-6-methylpyrimidine-2-carboxylate]",+ (+ means >1 uM)
3,"Cc1cc(NC2CCC(F)(F)CC2)nc(Cn2ccc(C)n2)n1 [IN11273-015-P1, N-(4,4-difluorocyclohexyl)-6-methyl-2-((3-methyl-1H-pyrazol-1-yl)methyl)pyrimidin-4-amine]",+ (+ means >1 uM)
4,"Cc1cc(NC2CCC(F)(F)CC2)nc(Cn2nccc2C)n1 [IN11273-015-P2, N-(4,4-difluorocyclohexyl)-6-methyl-2-((5-methyl-1H-pyrazol-1-yl)methyl)pyrimidin-4-amine]",+ (+ means >1 uM)
5,"Cc1cc(NC2CCC(F)(F)CC2)nc(CC#N)n1 [IN11273-018-P1, 2-(4-((4,4-difluorocyclohexyl)amino)-6-methylpyrimidin-2-yl) acetonitrile]",+ (+ means >1 uM)
6,Cc1ccn(-c2nc(NC3CCC(F)(F)CC3)cc(N3CC(=O)N(C)C(=O)C3)n2)n1 [IN11288-005-P1],++ (++ means 200 nM-1000 nM)
7,Cc1ccn(-c2nc(C#N)cc(NC3CCC(F)(F)CC3)n2)n1 [IN11288-025-P1],+ (+ means >1 uM)
8,"OCCN(CCO)c1cc(NC2CCC(F)(F)CC2)nc(-n2ccc(CO)n2)n1 [IN11337-019-P1, 2,2′-((6-((4,4-difluorocyclohexyl)amino)-2-(3-(hydroxymethyl)-1H-pyrazol-1-yl)pyrimidin-4-yl)azanediyl)bis-(ethan-1-ol)]",+ (+ means >1 uM)
9,"Cc1cn(-c2cc(OC3COC3)cc(NC3CCC(F)(F)CC3)n2)nc1CF [NSSy5615, N-(4,4-difluorocyclohexyl)-6-(3-(fluoromethyl)-4-methyl-1H-pyrazol-1-yl)-4-(oxetan-3-yloxy)pyridin-2-amine]",++ (++ means 200 nM-1000 nM)
10,"FCc1ccn(-c2nc(NC3CCC(F)(F)CC3)cc(OC3CC(F)C3)n2)n1 (stereo not drawn) [NSSy5618, N-(4,4-difluorocyclohexyl)-6-(3-fluorocyclobutoxy)-2-(3-(fluoromethyl)-1H-pyrazol-1-yl)pyrimidin-4-amine]",+ (+ means >1 uM)
11,"FCc1ccn(-c2nc(NC3CCC(F)(F)CC3)cc(OC3CC(F)(F)C3)n2)n1 [NSSy5619, 6-(3,3-difluorocyclobutoxy)-N-(4,4-difluorocyclohexyl)-2-(3-(fluoromethyl)-1H-pyrazol-1-yl)pyrimidin-4-amine]",+ (+ means >1 uM)
12,"CC(C)C(=O)NCc1cc(NC2CCC(F)(F)CC2)nc(-n2ccc(CF)n2)c1 [NSSy5620, N-((2-((4,4-difluorocyclohexyl)amino)-6-(3-(fluoromethyl)-1H-pyrazol-1-yl)pyridin-4-yl)methyl)isobutyramide]",++ (++ means 200 nM-1000 nM)
13,"CC(=O)NCc1cc(NC2CCC(F)(F)CC2)nc(-n2cc(C)c(CF)n2)c1 [NSSy5622, N-((2-((4,4-difluorocyclohexyl)amino)-6-(3-(fluoromethyl)-4-methyl-1H-pyrazol-1-yl)pyridin-4-yl)methyl)acetamide]",++ (++ means 200 nM-1000 nM)
14,"Cn1cnc(COc2cc(NC3CCC(F)(F)CC3)nc(-c3nc(CF)cs3)n2)n1 [NSSy5624, N-(4,4-difluorocyclohexyl)-2-(4-(fluoromethyl)thiazol-2-yl)-6-((1-methyl-1H-1,2,4-triazol-3-yl)methoxy)pyrimidin-4-amine]",+ (+ means >1 uM)
15,Cc1csc(-c2nc(NC3CCC(F)(F)CC3)cc(OCc3cnnn3C)n2)n1 [NSSy5625],+++ (+++ means <200 nM)
16,Cc1csc(-c2nc(NC3CCC(F)(F)CC3)cc(OC3CN(C(=O)C(C)C)C3)n2)n1 [NSSy5629],+++ (+++ means <200 nM)
17,Cc1ccn(-c2nc(NC3CCC(F)(F)CC3)cc(N3CC4(COC4)C3)n2)n1 [NSSy5631],++ (++ means 200 nM-1000 nM)

row,Compound,SC100 (μM)
1,COC(=O)NCc1cc(NC2CCC(F)(F)CC2)nc(-n2ccc(C)n2)c1 [NSSy5635],++ (++ means 200 nM-1000 nM)
2,Cc1ccn(-c2cc(CNC(=O)C(C)C)cc(NC3CCC(F)(F)CC3)n2)n1 [NSSy5637],++ (++ means 200 nM-1000 nM)
3,"Cc1ccn(-c2cc(NC3CCC(F)(F)CC3)cc(OCc3ncnn3C)n2)n1 [NSSy5638, N-(4,4-difluorocyclohexyl)-2-((1-methyl-1H-1,2,4-triazol-5-yl)methoxy)-6-(3-methyl-1H-pyrazol-1-yl)pyridin-4-amine]",++ (++ means 200 nM-1000 nM)
4,"CC(=O)NCc1cc(NC2CCC(F)(F)CC2)nc(-c2nc(C)cs2)c1 [NSSy5640, N-((2-((4,4-difluorocyclohexyl)amino)-6-(4-methylthiazol-2-yl)pyridin-4-yl)methyl)acetamide]",++ (++ means 200 nM-1000 nM)
5,Cc1ccn(-c2cc(OCc3ncn(C)n3)cc(NC3CCC(F)(F)CC3)n2)n1 [NSSy5641],++ (++ means 200 nM-1000 nM)
6,Cc1ccn(-c2cc(OCc3cnnn3C)cc(NC3CCC(F)(F)CC3)n2)n1 [NSSy5643],++ (++ means 200 nM-1000 nM)
7,"CC(=O)NCc1cc(NC2CCC(F)(F)CC2)nc(-c2nc(CF)cs2)c1 [NSSy5644, N-((2-((4,4-difluorocyclohexyl)amino)-6-(4-(fluoromethyl)thiazol-2-yl)pyridin-4-yl)methyl) acetamide]",++ (++ means 200 nM-1000 nM)
8,"Cc1cc(C)n(-c2cc(Cc3ncco3)cc(NC3CCC(F)(F)CC3)n2)n1 [NSSy5645, N-(4,4-difluorocyclohexyl)-6-(3,5-dimethyl-1H-pyrazol-1-yl)-4-(oxazol-2-ylmethyl)pyridin-2-amine]",++ (++ means 200 nM-1000 nM)
9,Cc1csc(-c2cc(N3CCOCC3)cc(NC3CCC(F)(F)CC3)n2)n1 [NSSy5646],++ (++ means 200 nM-1000 nM)
10,"Cc1ccn(-c2nc(NC3CCC(F)(F)CC3)cc(OC3CC(F)C3)n2)n1 (stereo not drawn) [NSSy5647, N-(4,4-difluorocyclohexyl)-6-(3-fluorocyclobutoxy)-2-(3-methyl-1H-pyrazol-1-yl)pyrimidin-4-amine]",++ (++ means 200 nM-1000 nM)
11,"Cc1ccn(-c2nc(NC3CCC(F)(F)CC3)cc(OC3CNC3)n2)n1 [NSSy5648, 6-(azetidin-3-yloxy)-N-(4,4-difluorocyclohexyl)-2-(3-methyl-1H-pyrazol-1-yl)pyrimidin-4-amine]",+ (+ means >1 uM)
12,Cc1csc(-c2nc(NC3CCC(F)(F)CC3)cc(OCc3nnc(C)o3)n2)n1 [NSSy5651],++ (++ means 200 nM-1000 nM)
13,"COC(=O)NCc1cc(NC2CCC(F)(F)CC2)nc(-n2ccc(CF)n2)c1 [NSSy5653, methyl ((2-((4,4-difluorocyclohexyl)amino)-6-(3-(fluoromethyl)-1H-pyrazol-1-yl)pyridin-4-yl)methyl)carbamate]",++ (++ means 200 nM-1000 nM)
14,"Cc1csc(-c2cc(N3CCOCC3)cc(NC3CC=CCC3)n2)n1 (stereo not drawn) [NSSy5655, N-(cyclohex-3-en-1-yl)-6-(4-methylthiazol-2-yl)-4-morpholinopyridin-2-amine]",++ (++ means 200 nM-1000 nM)
15,Cc1ccn(-c2nc(NC3CCC(F)CC3)cc(N3CCOCC3)n2)n1 (stereo not drawn) [NSSy5662],+ (+ means >1 uM)
16,Cc1ccn(-c2nc(NC3CC=CCC3)cc(N3CCOCC3)n2)n1 (stereo not drawn) [NSSy5663],+ (+ means >1 uM)
